Results on 2 compounds are retold here after patent publication US20120035256A1, “Use of bipolar trans carotenoids as a pretreatment and in the treatment of peripheral vascular disease” (Diffusion Pharmaceuticals LLC, priority 2008, published 2012).

In experiment [1] the test system is atherosclerotic plaque formation. To be noted: rabbits; Gainer and Chisolm, Atherosclerosis 19: 135-138, 1974; cited from earlier work.
Experiment [2] can be described thus: Rat transcutaneous oxygen (TCOM) study with 100% oxygen. It is filed as in vivo. To be noted: male Sprague-Dawley rats breathing 100% oxygen, TSC injected into femoral vein, 45 minutes recording, FIG. 1. The procedure:
For the rat TCOM studies, male Sprague-Dawley rats were used which weighed between 350 and 400 grams each. TCOM electrodes are attached to humans on the chest, on the leg, or on the top of the foot. Using a TCOM apparatus (Radiometer), the electrodes were attached to the shaven skin in the areas of the chest, the abdomen, and the thigh of the rats. Pure oxygen was then administered to the rats. The most reproducible results came from the electrode attached near the rat's abdomen, on the left or right side.
The rats were anesthetized (to quiet them) using IP injections of 80 mg/kg ketamine and 10 mg/kg xylazine.
After the animals were asleep, the abdomen area of the rat was shaved and the TCOM electrode collar was attached to that area. Using Dow Corning high vacuum silicone grease between the electrode collar and the skin was helpful in maintaining a good seal on the rat's skin.
After attaching the TCOM probe, the transcutaneous oxygen tension was then monitored for 30 minutes while the rat breathed room air. The rat was then switched to 100% oxygen and TSC was injected into the femoral vein. The TCOM readings were then recorded for an additional 45 minutes.

Experiment [3] deals with focal cerebral ischemia (three vessel occlusion: both CCA and MCA). The experiment is described as follows: Three vessel occlusion focal cerebral ischemic model. It is filed as in vivo, rat. The text has this:
Preconditioning or pretreating a patient (mammal including human) with a bipolar trans carotenoid is advisable for the following patients: • a patient at risk of an ischemic event; • a patient at risk of forming an embolism or blood clot in the blood vessels, the brain, the heart, or the lungs. The embolism can be fat globules (a fat embolism), air bubbles (an air embolism), talc embolism (often following drug abuse), septic emboli (containing pus and bacteria), atherosclerotic emboli, or amniotic fluid; • a patient at risk of stroke including a patient diagnosed with a blocked carotid artery or having suffered a transient ischemic attack (TIA). In Example 2, TSC was administered intravenously to rats 24 hours before the ischemic injury to the brain occurred. Sufficient time passed between the administration of TSC and the subsequent event so that the TSC would have been cleared from the system. The TSC was dissolved in water, and given over a period of an hour in the following manner. First a 0.1 ml bolus injection was given, then a slow infusion (0.6 ml given over 60 minutes) was given, and finally another 0.1 ml bolus was given. […] The occlusions were removed after 2 hours, and the infarct volume (core plus penumbra) was measured 24 hours later. […]
Trans-sodium crocetinate (0.091 mg/kg total dosage) or vehicle was administered intravenously as follows 1) 0.1 ml injection 2) continuous infusion of TSC at a rate of 0.01 ml/min for the next 60 minutes, and 3) a final 0.1 ml injection of TSC 30 minutes after the cessation of continuous infusion. […] Infarction volumes were measured 24 hours after the ischemic event.
The effects of TSC on focal ischemic injury were examined using adult male Sprague-Dawley rats, each of which weighed between 330 and 370 g. […] Rectal temperature was monitored continuously and maintained at 37° C. with a heating lamp. […]
Focal ischemic was performed by clipping (Sundt AVM microclip No 1, Codman & Shurtleff, Inc., Raynham, Mass.) the MCA at a point distal to the origin of the lenticulostriate arteries. […] After 24 hours, infarct volume was calculated. […]

As for `CC(/C=C/C=C(\C)C(=O)O)=C\C=C\C=C(C)\C=C\C=C(/C)C(=O)O` [Crocetin], the “Atherosclerotic plaque formation over time” value in experiment [1] is recorded as “reduction in atherosclerotic plaque formation”.
As for `CC(/C=C/C=C(\C)C(=O)[O-])=C\C=C\C=C(C)\C=C\C=C(/C)C(=O)[O-].[Na+].[Na+]` [TSC, trans sodium crocetinate], in experiment [2], the “TCOM reading (transcutaneous oxygen tension)” value was “additional increase in the TCOM reading”. Further, in experiment [3] (3VO+TSC group, TSC 0.091 mg/kg total i.v. 24 hours before 120 min ischemia, measured 24 hours after the ischemic event, mean±SEM, p<0.01 vs 3VO-only or 3VO+Vehicle), the “Infarct volume (actual, adjusted for swelling)” value was found to be 57.7±16.2 mm3. Besides, the “Reduction in infarct volume, preischemic treatment” value in experiment [3] (TSC 0.091 mg/kg i.v. 24 hours before ischemic injury, occlusions removed after 2 hours, infarct volume measured 24 hours later) is 65%. Further, the “Reduction in infarct volume, intraischemic treatment” value in experiment [3] (intraischemic treatment with TSC done previously in this model) was 58%.
